Data from article PMC7766159, “Novel Psychoactive Phenethylamines: Impact on Genetic Material” (International Journal of Molecular Sciences, 2020).

Experiments:
primary rat hepatocyte = test system: primary rat hepatocyte; set-up: method as in PMID 31468101; settings: after 24 h; cited from earlier work
TK6 cells [1] = test: Cytotoxicity analysis (Guava ViaCount, cell viability); type: cell-based, human; settings: all concentrations tested (6.25-75 µM), 26 h
Protocol: In the preliminary phase of the research, we determined the concentrations to be used in the subsequent experiments aimed at evaluating the potential genotoxicity of different molecules under study. First, we assessed the 2C-H, 2C-I, 2C-B, 25B-NBOMe, and MDMA-induced cytotoxicity after 26 h treatment (time required by TK6 cells to carry out two cell cycles) by measuring the percentage of live cells at the different concentrations tested (6.25, 12.5, 25, 35, 50, 75 µM). This value was normalized on the one obtained in the untreated control cultures C (-) equal to 100% in order to check whether the cellular viability complied with the OECD threshold (equal to 55 ± 5%).
(§1) In all experiments, aliquots of 2 × 10^5 of TK6 cells were treated with increasing concentrations of phenethylamines from 0 to 75 µM and incubated for 26 h, corresponding to two replication cycles for the analysis of cytotoxicity, cytostasis, apoptosis, and genotoxicity, while for the analysis of ROS, 1 h of treatment was performed.
Cytotoxicity assay was performed as previously described by Lenzi et al.. Briefly, at the end of the phenethylamines treatment time, 1.5 × 10^5 cells were stained with Guava ViaCount Reagent. The reagent contains the Propidium Iodide (PI) that allows us to discriminate viable from dead cells based on different permeability to DNA-binding dye.
180 μL of reagent were added to 20 μL of cell suspension and incubated for 5 min at room temperature (RT). After, a total of 1000 events were acquired and analyzed by Guava ViaCount software.
The results obtained from the samples treated with different concentrations of phenethylamines were normalized on those obtained from the untreated control cultures, accounted equal to 100%.

TK6 cells [2] = test: Cytostasis analysis (Relative Population Doubling, Guava ViaCount); type: cell-based, human; settings: for Relative Population Doubling (RPD): 26 h treatment, vs untreated control C (-) = 100%, mean ± SEM
Description: In addition, to make the genotoxicity test reliable, it is necessary to check the cellular proliferation in order to verify that a sufficient number of cells has undergone mitosis and so transmitted the genetic damage suffered to the daughter cells. For this purpose, the OECD recommends the measurement of the Relative Population Doubling (RPD) to estimate the cytostasis and, analogously to the cytotoxicity, establishes a threshold at most equal to 55 ± 5% [45].
as §1
In parallel, always using the Guava ViaCount Reagent, the number of cells seeded at time 0 and that measured at the end of the phenethylamines treatment time was used to check the correct replication in the control cultures and to compare it to that measured in the treated cultures by the RPD, calculated as the following formula [46, 47]: RPD= (No. of Population doublings in treated cultures)/(No. of Population doublings in control cultures) × 100
Similarly to cytotoxicity, the cytostasis was checked in order to verify that cell proliferation respected the threshold established by the OECD guideline (55 ± 5%).

TK6 cells [3] = test: Apoptosis analysis (Guava Nexin Assay); type: cell-based, human; settings: 26 h, vs untreated control C (-) equal to 1, tested concentrations
Protocol: as §1
The percentage of apoptotic cells was evaluated by the Guava Nexin Assay according to the procedure by Lenzi et al..
Briefly, at the end of the phenethylamines treatment time, the percentage of apoptotic cells was assessed using the Guava Nexin Reagent. The reagent contains the 7-aminoactinomycin D (7-AAD), a cell non-permeant dye, that allows discrimination between live and dead cells and the Annexin-V-PE that allows the identification of apoptotic cells by binding the phosphatidylserine on the cell surface.
100 μL of reagent were added to 100 μL of cell suspension (~1 × 10^5 cells) and incubated for 20 min at RT. After, a total of 2000 events were acquired and analyzed by Guava Nexin software.
The apoptotic cell percentages recorded in the cultures treated with phenethylamines different concentrations were normalized on those recorded in the untreated control cultures, accounted equal to 1 and expressed as apoptotic fold increase.

TK6 cells [4] = test: Genotoxicity analysis (micronucleus frequency, automated flow cytometric protocol); type: cell-based, human; settings: 26 h
Protocol: as §1
The analysis of the MNi frequency was performed using a new automated flow cytometric protocol that we recently developed in our laboratory. The detailed protocol is described in the paper by Lenzi et al. and was used in our previous publication to analyze the genotoxicity of some synthetic cannabinoids.
Briefly, at the end of the phenethylamines treatment time, 7 × 10^5 cells were collected and incubated with 7-AAD at RT for 5 min, after which the cells were lysed and stained with SYTOX Green for 1 h. After, a total of 10,000 nuclei, derived from viable and proliferating cells (7-AAD negative), and the corresponding number of micronuclei were acquired. The discrimination between nuclei and MNi occurs on the basis of the different size analyzed by Forward Scatter (FSC), and the different intensity of green fluorescence (SYTOX Green).
The MNi frequencies (number of MNi/10,000 nuclei) recorded in treated cultures were normalized on those recorded in the untreated control cultures, accounted equal to 1 and expressed as MNi frequency fold increase.
As recommended by OECD guideline 487, we used MMC and VINB as positive controls, being known clastogen and aneuploidogen agents, respectively.

TK6 cells [5] = test: ROS analysis (DCFH2-DA fluorescence); type: cell-based, human; settings: 1 h; 35 µM for 2C-H, 2C-I and MDMA, 12.5 µM for 2C-B and 25B-NBOMe; vs C (-) equal to 1
Protocol: Lastly, in order to identify a possible mechanism of action at the basis of the genotoxic activity, TK6 cells were treated for 1 h with the highest concentration tested for each substance: 35 µM for 2C-H, 2C-I and MDMA, and 12.5 µM for 2C-B and 25B-NBOMe, and then the possible ROS induction was measured.
as §1
At the end of the phenethylamines treatment time, 2 × 10^5 cells were centrifuged, resuspended in PBS1X to measure intracellular ROS level and stained at 37 °C in the dark for 20 min with 2′,7′-dichlorodihydrofluorescin diacetate (DCFH2-DA). After, a total of 5000 events, derived from viable cells, were acquired and analyzed using Guava Incyte software.
The fluorescence intensity of 2′,7′-dichlorofluorescin (DCF) (which forms in cells in the presence of ROS) recorded in treated cultures was normalized on those recorded in the untreated control cultures, accounted equal to 1 and expressed as a ROS fold increase.

[6] = test system: undifferentiated and differentiated human SH-SY5Y cells; set-up: method as in PMID 28067045; settings: cited from earlier work
primary rat hepatocytes = test system: primary rat hepatocytes; set-up: method as in PMID 27255387; settings: 24 h; cited from earlier work
C2C12 myoblast cells = test system: C2C12 myoblast cells; set-up: method as in PMID 30925718; settings: concentrations 30 times higher than in this study, 24 h; cited from earlier work

CNC(C)C(=O)c1cccc(C)c1 (stereo not shown) [Metaphedrone, 3-methylmethcathinone]
concentration mediating oxidative stress (primary rat hepatocyte): 10 µM

CNC(C)Cc1ccc2c(c1)OCO2 (stereo not shown) [MDMA, 3,4-methylenedioxy-methamphetamine, reference compound]
cytotoxic and cytostatic effect (TK6 cells [1]): did not show a cytotoxic and cytostatic effect | Relative Population Doubling (RPD) (TK6 cells [2]; 6.25 µM): 96.0% ± 1.0 | Relative Population Doubling (RPD) (TK6 cells [2]; 12.5 µM): 96.0% ± 0.8 | Relative Population Doubling (RPD) (TK6 cells [2]; 25 µM): 98.7% ± 0.9 | Relative Population Doubling (RPD) (TK6 cells [2]; 35 µM): 98.0% ± 1.5 | Relative Population Doubling (RPD) (TK6 cells [2]; 50 µM): 96.0% ± 1.2 | Relative Population Doubling (RPD) (TK6 cells [2]; 75 µM): 91.9% ± 1.3 | concentrations that caused an RPD value well above 55 ± 5% (OECD threshold) (TK6 cells [2]; 26 h, tested 6.25-75 µM): all the concentrations tested | apoptosis fold increase (TK6 cells [3]): never reached a doubling | MNi frequency fold increase (TK6 cells [4]; 25 and 35 µM, vs C (-)): did not increase the MNi frequency in any case | genotoxicity (MN test outcome) (TK6 cells [4]; without metabolic activation): not genotoxic | ROS fold increase (mean fluorescence intensity) (TK6 cells [5]): did not highlight any ROS level increase | production of ROS [6]: unable to trigger the production of ROS | ROS levels (primary rat hepatocytes): increase of ROS levels | mitochondrial superoxide production (C2C12 myoblast cells): increase in the mitochondrial superoxide production
